Reference: ChEMBL document CHEMBL5143684, “Design, synthesis and biological evaluation of novel 5-methyl-2,4,5,6-tetrahydropyrrolo[3,4-c]pyrazole derivatives as potent potassium-competitive acid blockers” (Bioorg Med Chem, 2022)

Columns and labels:
[1] = Inhibition of rabbit stomach K+ stimulated H(+)/K(+) ATPase activity incubated for 30 mins in presence of ATP and KCl by malachite green reagent based assay; type: tissue-based, Oryctolagus cuniculus
[2] = Inhibition of gastric acid secretion in histamine induced Sprague-Dawley rat at 1 mg/kg, iv pretreated with compound for 15 mins followed by histamine dihydrochloride injection and measured after 3 hrs; type: functional; conditions: 3.25 h, time 195 min
[3] = AUC (0 to infinity) in Sprague-Dawley rat at 8 mg/kg, po by LC-MS/MS analysis; type: ADME, organism-based; design: time infinity, dose 8 mg/kg, route po; conditions: in vivo
[4] = Oral bioavailability in Sprague-Dawley rat at 8 mg/kg by LC-MS/MS analysis; type: ADME, organism-based; conditions: in vivo
[5] = Cmax in Sprague-Dawley rat at 8 mg/kg, po by LC-MS/MS analysis; type: ADME, organism-based; design: dose 8 mg/kg, route po; conditions: in vivo
[6] = AUC (0 to infinity) in Sprague-Dawley rat at 2 mg/kg, iv by LC-MS/MS analysis; type: ADME, organism-based; design: time infinity, dose 2 mg/kg, route iv; conditions: in vivo
[7] = Elimination half life in Sprague-Dawley rat at 8 mg/kg, po by LC-MS/MS analysis; type: ADME, organism-based; conditions: in vivo, read-out: beta t1/2 (converted)
[8] = Terminal half life in Sprague-Dawley rat at 2 mg/kg, iv by LC-MS/MS analysis; type: ADME, organism-based; conditions: in vivo, read-out: beta t1/2 (converted)
[9] = Cmax in Sprague-Dawley rat at 2 mg/kg, po; type: ADME, organism-based; design: dose 2 mg/kg, route po; conditions: in vivo
[10] = Oral bioavailability in Sprague-Dawley rat at 2 mg/kg; type: ADME, organism-based; conditions: in vivo
[11] = AUC (0 to infinity) in Sprague-Dawley rat at 2 mg/kg, po; type: ADME, organism-based; design: time infinity, dose 2 mg/kg, route po; conditions: in vivo
[12] = AUC (0 to infinity) in Sprague-Dawley rat at 0.75 mg/kg, iv measured up to 24 hrs; type: ADME, organism-based; design: dose 0.75 mg/kg, time < 24 hrs, route iv; conditions: in vivo
[13] = Half life in Sprague-Dawley rat at 2 mg/kg, po; type: ADME, organism-based; conditions: in vivo
[14] = Half life in Sprague-Dawley rat at 0.75 mg/kg, iv measured up to 24 hrs; type: ADME, organism-based; conditions: in vivo

Row | SMILES | IC50 [1] [nM] | other results
1 | CN1Cc2nn(Cc3cccc(-c4cccc(C#N)c4)c3)c(-c3ccccc3F)c2C1 | 396 | –
2 | CN1Cc2nn(Cc3cccc(-c4cccc(F)c4)c3)c(-c3ccccc3F)c2C1 | 328 | –
3 | CN1Cc2nn(Cc3cccc(-c4ccc(F)cc4)c3)c(-c3ccccc3F)c2C1 | 340 | –
4 | CC(C)Oc1ccc(-c2c3c(nn2Cc2cccc(O)c2)CN(C)C3)cc1 | > 10000 | –
5 | CN1Cc2nn(Cc3cccc(-c4cccc(N(C)C)c4)c3)c(-c3ccccc3F)c2C1 | 313 | –
6 | CN1Cc2c(-c3ccccc3F)nn(S(=O)(=O)c3ccccc3)c2C1 | > 10000 | –
7 | CN1Cc2nn(Cc3cccc(-c4cccc(C(F)(F)F)c4)c3)c(-c3ccccc3F)c2C1 | 440 | –
8 | CN1Cc2nn(Cc3cccc(-c4ccccc4F)c3)c(-c3ccccc3F)c2C1 | 376 | –
9 | CN1Cc2cc(S(=O)(=O)c3ccccc3)n(-c3ccccc3F)c2C1 | 2110 | –
10 | CN1Cc2nn(Cc3cccc(O)c3)c(-c3cccc(Cl)c3)c2C1 | 6350 | –
11 | CN1Cc2nn(S(=O)(=O)c3cccnc3)c(-c3ccccc3F)c2C1 | 1100 | –
12 | CN1Cc2nn(Cc3cccc(-c4cccc(S(C)(=O)=O)c4)c3)c(-c3ccccc3F)c2C1 | 129 | –
13 | CN1Cc2nn(Cc3cccc(O)c3)c(-c3ccc(O)cc3)c2C1 | 3580 | –
14 | CN1Cc2nn(S(=O)(=O)c3ccccc3)c(-c3ccccc3F)c2C1 | 1030 | –
15 | CN1Cc2nn(Cc3cccc(O)c3)c(-c3cccc(O)c3)c2C1 | 1240 | –
16 | CN1Cc2nn(Cc3cccc(O)c3)c(-c3cccnc3)c2C1 | 4170 | –
17 | CN1Cc2nn(Cc3cccc(O)c3)c(-c3cccnc3F)c2C1 | 488 | –
18 | CN1Cc2nn(Cc3cccc(O)c3)c(-c3ccccc3)c2C1 | 1850 | –
19 | Cc1ccc(-c2c3c(nn2Cc2cccc(O)c2)CN(C)C3)c(F)c1 | 416 | –
20 | CNCc1cc(-c2ccccc2F)n(S(=O)(=O)c2cccnc2)c1 [VONOPRAZAN] | 49.1 | Cmax [9]: 17 ng/mL; bioavailability [10]: 10%; AUC(0-inf) [11]: 27 ng·h/mL; AUC(0-inf) [12]: 99 ng·h/mL; half-life [13]: 1.3 h; half-life [14]: 1.2 h; inhibition in vivo at 1 mg/kg [2]: 91%

Now from value to compound, other results behind:

Row | IC50 [1] [nM] | SMILES | other results
21 | 140 | CN1Cc2nn(Cc3cccc([N+](=O)[O-])c3)c(-c3ccccc3F)c2C1 | –
22 | 354 | CN1Cc2nn(Cc3cccc(Cl)c3)c(-c3ccccc3F)c2C1 | –
23 | 1840 | CN1Cc2nn(Cc3cccc(OCCC(=O)O)c3)c(-c3ccccc3F)c2C1 | –
24 | 97.5 | Cc1ccccc1-c1c2c(nn1Cc1cccc(O)c1)CN(C)C2 | –
25 | 410 | CN1Cc2nn(Cc3cccc(N4CCOCC4)c3)c(-c3ccccc3F)c2C1 | –
26 | 861 | CN1Cc2nn(Cc3ccccc3)c(-c3ccccc3F)c2C1 | –
27 | 3200 | CN1Cc2nn(Cc3ccoc3)c(-c3ccccc3F)c2C1 | –
28 | > 10000 | COC(=O)c1ccccc1-c1c2c(nn1Cc1cccc(O)c1)CN(C)C2 | –
29 | 814 | CN1Cc2nn(Cc3ccccc3F)c(-c3ccccc3F)c2C1 | –
30 | 4300 | CN1Cc2nn(Cc3cc4ccccc4o3)c(-c3ccccc3F)c2C1 | –
31 | 342 | CN1Cc2nn(Cc3cccc(F)c3)c(-c3ccccc3F)c2C1 | –
32 | 674 | CN1Cc2nn(Cc3cccnc3)c(-c3ccccc3F)c2C1 | –
33 | 2160 | CN1Cc2nn(Cc3ccsc3)c(-c3ccccc3F)c2C1 | –
34 | 77.3 | CN1Cc2nn(Cc3cccc(O)c3)c(-c3ccccc3F)c2C1 | inhibition in vivo at 1 mg/kg [2]: 35.6%
35 | 104 | CN1Cc2nn(Cc3cccc(O)c3)c(-c3ccccc3Cl)c2C1 | –
36 | 747 | CN1Cc2nn(Cc3cccc(OCC(N)=O)c3)c(-c3ccccc3F)c2C1 | –
37 | 389 | CN1Cc2nn(Cc3cccc(OCCC(N)=O)c3)c(-c3ccccc3F)c2C1 | –
38 | 585 | CN1Cc2nn(Cc3ccc(F)cc3)c(-c3ccccc3F)c2C1 | –
39 | 894 | CN1Cc2nn(Cc3cccc(N)c3)c(-c3ccccc3F)c2C1 | –
40 | 60.5 | CN1Cc2nn(Cc3cccc(-c4cccc(C(N)=O)c4)c3)c(-c3ccccc3F)c2C1 | AUC(0-inf) [3]: 341 ng·h/mL; bioavailability [4]: 16.4%; Cmax [5]: 150 ng/mL; AUC(0-inf) [6]: 520 ng·h/mL; half-life [7]: 0.8 h; half-life [8]: 0.49 h; inhibition in vivo at 1 mg/kg [2]: 86.8%
41 | > 10000 | CN1Cc2nn(Cc3cccc(O)c3)c(-c3ccccc3CO)c2C1 | –
42 | 290 | COc1cccc(Cn2nc3c(c2-c2ccccc2F)CN(C)C3)c1 | –
